According to ChEMBL document CHEMBL5291721, “A preclinical secondary pharmacology resource illuminates target-adverse drug reaction associations of marketed drugs” (Nat Commun, 2023):

Tests used:
[1] = target: Neuronal acetylcholine receptor subunit alpha-4 (Homo sapiens, UniProt P43681)
[2] = target: Beta-1 adrenergic receptor (Homo sapiens, UniProt P08588); format: functional
[3] = target: T1, Prostaglandin G/H synthase 1 (Rattus norvegicus, UniProt Q63921); format: functional
T1 sequence (Q63921 whole entry): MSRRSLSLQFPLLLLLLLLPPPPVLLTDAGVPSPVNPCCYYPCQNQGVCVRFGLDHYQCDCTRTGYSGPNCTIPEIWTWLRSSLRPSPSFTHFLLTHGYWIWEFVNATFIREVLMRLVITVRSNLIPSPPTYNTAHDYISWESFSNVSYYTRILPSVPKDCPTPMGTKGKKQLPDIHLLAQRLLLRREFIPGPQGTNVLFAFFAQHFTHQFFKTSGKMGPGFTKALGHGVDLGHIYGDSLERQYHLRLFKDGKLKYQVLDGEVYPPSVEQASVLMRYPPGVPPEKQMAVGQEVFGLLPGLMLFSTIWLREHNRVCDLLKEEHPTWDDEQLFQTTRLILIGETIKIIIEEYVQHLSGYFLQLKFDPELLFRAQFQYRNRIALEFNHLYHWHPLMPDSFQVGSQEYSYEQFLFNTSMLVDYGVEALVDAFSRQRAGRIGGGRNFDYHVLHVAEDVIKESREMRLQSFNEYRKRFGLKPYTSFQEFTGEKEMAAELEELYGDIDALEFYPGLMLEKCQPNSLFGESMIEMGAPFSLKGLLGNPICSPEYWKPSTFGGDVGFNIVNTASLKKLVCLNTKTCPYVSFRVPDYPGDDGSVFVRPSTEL

[4] = target: Glutamate receptor ionotropic, NMDA 1 (Rattus norvegicus, UniProt P35439)
[5] = target: Sodium-dependent serotonin transporter (Homo sapiens, UniProt P31645)
[6] = target: T2, 5-hydroxytryptamine receptor 2C (Homo sapiens, UniProt P28335)
T2 sequence (P28335 whole entry): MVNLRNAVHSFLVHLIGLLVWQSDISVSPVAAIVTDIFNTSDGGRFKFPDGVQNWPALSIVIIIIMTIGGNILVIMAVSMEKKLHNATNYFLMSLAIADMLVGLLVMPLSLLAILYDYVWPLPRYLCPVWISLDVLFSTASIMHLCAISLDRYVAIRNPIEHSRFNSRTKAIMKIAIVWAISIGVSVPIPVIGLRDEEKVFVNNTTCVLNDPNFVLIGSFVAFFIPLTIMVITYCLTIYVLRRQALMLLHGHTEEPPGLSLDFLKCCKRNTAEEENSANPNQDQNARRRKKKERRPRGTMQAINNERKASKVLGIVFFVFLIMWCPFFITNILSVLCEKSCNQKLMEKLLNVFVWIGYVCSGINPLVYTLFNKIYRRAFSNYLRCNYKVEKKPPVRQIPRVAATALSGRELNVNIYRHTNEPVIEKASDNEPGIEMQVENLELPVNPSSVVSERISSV

[7] = target: Sodium-dependent noradrenaline transporter (Homo sapiens, UniProt P23975)
Histamine H1 receptor = Histamine H1 receptor (Homo sapiens, UniProt P35367)
Sequence of Histamine H1 receptor (P35367 whole entry): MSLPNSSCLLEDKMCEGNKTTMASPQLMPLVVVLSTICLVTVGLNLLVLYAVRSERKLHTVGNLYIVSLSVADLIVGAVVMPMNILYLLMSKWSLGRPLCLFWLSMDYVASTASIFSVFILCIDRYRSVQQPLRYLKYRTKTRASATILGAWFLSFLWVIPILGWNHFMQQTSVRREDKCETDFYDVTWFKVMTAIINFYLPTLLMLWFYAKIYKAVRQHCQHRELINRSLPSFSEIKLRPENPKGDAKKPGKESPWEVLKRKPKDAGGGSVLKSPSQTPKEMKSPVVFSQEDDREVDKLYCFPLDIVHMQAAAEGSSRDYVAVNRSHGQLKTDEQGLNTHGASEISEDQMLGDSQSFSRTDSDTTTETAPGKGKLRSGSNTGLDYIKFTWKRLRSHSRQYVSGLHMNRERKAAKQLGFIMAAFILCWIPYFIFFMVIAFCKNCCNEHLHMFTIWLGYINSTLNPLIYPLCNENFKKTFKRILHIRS

[8] = target: 5-hydroxytryptamine receptor 2A (Homo sapiens, UniProt P28223); format: functional, cell-based
Sequence of 5-hydroxytryptamine receptor 2A (P28223 whole entry): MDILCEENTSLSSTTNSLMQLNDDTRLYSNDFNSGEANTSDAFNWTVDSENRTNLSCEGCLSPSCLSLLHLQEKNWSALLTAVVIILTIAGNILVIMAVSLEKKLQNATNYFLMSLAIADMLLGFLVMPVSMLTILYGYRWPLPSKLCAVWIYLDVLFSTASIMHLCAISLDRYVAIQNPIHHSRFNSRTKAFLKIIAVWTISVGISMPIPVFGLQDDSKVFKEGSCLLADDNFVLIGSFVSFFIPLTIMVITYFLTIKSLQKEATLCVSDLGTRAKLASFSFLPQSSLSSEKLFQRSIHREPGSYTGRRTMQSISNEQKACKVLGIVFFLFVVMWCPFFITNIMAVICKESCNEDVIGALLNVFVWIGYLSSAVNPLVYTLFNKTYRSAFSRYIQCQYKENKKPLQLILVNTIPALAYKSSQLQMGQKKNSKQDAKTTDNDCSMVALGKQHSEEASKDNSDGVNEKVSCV

[9] = target: cGMP-inhibited 3',5'-cyclic phosphodiesterase 3A (Homo sapiens, UniProt Q14432); format: functional
Sequence of cGMP-inhibited 3',5'-cyclic phosphodiesterase 3A (Q14432 whole entry): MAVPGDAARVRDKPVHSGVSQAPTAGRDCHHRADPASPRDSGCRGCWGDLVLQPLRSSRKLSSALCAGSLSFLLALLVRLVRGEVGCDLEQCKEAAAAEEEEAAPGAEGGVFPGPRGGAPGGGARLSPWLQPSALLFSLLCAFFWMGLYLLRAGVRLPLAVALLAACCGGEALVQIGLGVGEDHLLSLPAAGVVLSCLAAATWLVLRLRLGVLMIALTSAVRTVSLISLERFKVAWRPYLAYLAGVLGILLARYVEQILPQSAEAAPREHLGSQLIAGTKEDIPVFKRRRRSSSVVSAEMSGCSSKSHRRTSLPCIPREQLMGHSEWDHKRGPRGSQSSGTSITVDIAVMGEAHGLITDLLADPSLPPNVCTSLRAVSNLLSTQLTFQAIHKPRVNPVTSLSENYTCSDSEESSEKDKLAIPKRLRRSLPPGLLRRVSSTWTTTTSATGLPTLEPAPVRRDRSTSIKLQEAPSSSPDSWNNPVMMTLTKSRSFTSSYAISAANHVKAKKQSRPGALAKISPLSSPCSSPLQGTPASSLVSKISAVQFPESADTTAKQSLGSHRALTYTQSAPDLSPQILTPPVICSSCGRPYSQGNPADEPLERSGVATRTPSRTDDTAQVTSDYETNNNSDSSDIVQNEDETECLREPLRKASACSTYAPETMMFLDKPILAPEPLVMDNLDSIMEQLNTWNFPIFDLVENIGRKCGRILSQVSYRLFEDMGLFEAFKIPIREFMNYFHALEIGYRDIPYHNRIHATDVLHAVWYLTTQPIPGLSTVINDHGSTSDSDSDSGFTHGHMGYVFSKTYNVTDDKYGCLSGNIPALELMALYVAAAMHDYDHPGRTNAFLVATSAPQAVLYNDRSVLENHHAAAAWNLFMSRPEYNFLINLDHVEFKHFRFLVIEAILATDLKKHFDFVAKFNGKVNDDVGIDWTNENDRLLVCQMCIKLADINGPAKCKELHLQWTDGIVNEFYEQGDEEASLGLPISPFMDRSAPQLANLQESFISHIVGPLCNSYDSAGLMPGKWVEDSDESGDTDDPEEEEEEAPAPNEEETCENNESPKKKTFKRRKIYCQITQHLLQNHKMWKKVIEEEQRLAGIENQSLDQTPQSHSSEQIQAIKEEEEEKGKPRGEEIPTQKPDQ

Mu-type opioid receptor = Mu-type opioid receptor (Homo sapiens, UniProt P35372); experiment: biochemical; format: functional
Sequence of Mu-type opioid receptor (P35372 whole entry): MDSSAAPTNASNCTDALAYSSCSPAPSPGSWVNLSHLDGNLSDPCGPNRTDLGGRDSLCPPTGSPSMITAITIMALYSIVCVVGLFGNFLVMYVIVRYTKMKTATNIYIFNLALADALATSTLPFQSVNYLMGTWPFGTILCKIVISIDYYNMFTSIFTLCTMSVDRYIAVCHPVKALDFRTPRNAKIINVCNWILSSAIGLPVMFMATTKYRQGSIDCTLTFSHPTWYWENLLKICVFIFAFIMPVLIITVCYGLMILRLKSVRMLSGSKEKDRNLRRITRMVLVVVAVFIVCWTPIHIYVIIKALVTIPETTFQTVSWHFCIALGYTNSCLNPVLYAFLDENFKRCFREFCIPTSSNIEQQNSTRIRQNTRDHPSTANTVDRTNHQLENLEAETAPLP

Vasopressin V1a receptor = Vasopressin V1a receptor (Homo sapiens, UniProt P37288)
Sequence of Vasopressin V1a receptor (P37288 whole entry): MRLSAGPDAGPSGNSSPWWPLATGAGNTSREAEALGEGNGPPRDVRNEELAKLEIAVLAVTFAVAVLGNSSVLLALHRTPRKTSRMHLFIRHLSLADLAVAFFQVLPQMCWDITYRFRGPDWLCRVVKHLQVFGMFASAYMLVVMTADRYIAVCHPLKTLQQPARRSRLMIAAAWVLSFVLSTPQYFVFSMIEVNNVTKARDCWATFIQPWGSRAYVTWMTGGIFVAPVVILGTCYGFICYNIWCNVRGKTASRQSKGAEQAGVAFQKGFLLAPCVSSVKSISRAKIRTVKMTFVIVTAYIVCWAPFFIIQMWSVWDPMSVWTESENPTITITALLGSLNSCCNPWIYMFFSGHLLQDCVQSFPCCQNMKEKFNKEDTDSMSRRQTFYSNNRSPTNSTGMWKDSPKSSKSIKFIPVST

[10] = target: T3, Muscarinic acetylcholine receptor M2 (Homo sapiens, UniProt P08172); format: functional, cell-based
T3 sequence (P08172 whole entry): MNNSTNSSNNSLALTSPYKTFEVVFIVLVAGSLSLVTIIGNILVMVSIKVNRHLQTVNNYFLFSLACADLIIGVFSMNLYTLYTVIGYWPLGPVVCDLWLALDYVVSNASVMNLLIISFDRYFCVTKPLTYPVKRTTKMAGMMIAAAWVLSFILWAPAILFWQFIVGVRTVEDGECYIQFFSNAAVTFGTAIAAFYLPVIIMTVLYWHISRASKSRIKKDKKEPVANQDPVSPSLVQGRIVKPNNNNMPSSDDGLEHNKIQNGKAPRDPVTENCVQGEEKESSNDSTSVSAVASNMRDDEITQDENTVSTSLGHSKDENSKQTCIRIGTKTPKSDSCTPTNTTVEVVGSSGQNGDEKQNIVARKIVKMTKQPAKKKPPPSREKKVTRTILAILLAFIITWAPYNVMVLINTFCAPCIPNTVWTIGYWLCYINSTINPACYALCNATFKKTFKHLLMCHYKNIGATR

Adenosine receptor A2a = Adenosine receptor A2a (Homo sapiens, UniProt P29274)
Motilin receptor = Motilin receptor (Homo sapiens, UniProt O43193)
Sequence of Motilin receptor (O43193 whole entry): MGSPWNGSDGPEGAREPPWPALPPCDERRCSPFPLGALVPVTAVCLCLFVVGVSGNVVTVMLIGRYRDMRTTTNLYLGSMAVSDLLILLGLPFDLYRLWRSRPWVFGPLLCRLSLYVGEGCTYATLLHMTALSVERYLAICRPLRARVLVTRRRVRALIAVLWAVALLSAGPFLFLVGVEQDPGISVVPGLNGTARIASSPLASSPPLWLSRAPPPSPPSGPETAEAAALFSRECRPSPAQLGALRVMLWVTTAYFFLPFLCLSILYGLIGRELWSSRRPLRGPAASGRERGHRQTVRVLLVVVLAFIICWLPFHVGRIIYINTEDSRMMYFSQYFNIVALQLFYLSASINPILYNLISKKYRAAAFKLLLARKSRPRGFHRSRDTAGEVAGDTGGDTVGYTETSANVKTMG

[11] = target: 3',5'-cyclic-AMP phosphodiesterase 4D (Homo sapiens, UniProt Q08499); format: functional
Sequence of 3',5'-cyclic-AMP phosphodiesterase 4D (Q08499 whole entry): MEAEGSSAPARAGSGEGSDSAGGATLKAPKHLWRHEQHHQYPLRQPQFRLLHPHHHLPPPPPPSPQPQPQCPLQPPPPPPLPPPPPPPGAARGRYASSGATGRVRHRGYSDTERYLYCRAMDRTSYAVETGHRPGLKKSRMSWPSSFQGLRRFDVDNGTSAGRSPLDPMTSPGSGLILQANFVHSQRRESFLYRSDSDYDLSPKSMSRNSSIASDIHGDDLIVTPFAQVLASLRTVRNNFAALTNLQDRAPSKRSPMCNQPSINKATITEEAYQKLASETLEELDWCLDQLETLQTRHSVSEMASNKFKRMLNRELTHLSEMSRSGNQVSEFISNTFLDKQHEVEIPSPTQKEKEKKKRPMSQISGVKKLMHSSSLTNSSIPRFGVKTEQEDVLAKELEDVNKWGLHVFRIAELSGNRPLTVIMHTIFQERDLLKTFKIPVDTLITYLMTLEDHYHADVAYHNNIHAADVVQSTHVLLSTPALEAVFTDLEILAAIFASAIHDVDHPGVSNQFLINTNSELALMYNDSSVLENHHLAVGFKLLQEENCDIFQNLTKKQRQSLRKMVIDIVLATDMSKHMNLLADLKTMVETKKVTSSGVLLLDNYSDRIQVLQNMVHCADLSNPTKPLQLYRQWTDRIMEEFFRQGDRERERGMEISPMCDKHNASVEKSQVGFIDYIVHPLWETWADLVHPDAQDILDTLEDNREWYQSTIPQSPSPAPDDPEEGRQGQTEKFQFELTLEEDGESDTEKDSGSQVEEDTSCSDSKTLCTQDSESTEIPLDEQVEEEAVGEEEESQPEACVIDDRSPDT

[12] = target: T4, Neuropeptide Y receptor type 1 (Homo sapiens, UniProt P25929)
T4 sequence (P25929 whole entry): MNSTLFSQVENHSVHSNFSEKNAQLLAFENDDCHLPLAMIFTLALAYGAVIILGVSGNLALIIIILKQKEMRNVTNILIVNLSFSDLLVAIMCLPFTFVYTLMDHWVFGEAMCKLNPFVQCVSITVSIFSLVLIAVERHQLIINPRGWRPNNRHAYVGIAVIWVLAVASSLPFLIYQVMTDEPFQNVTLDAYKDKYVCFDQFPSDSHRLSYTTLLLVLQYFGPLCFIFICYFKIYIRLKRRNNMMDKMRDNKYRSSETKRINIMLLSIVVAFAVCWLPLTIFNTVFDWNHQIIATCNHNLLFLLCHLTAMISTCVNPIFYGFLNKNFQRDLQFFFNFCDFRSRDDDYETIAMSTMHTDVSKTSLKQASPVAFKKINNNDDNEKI
Note: assay procedure not described here.

Sequence of Neuronal acetylcholine receptor subunit alpha-4 (P43681 whole entry): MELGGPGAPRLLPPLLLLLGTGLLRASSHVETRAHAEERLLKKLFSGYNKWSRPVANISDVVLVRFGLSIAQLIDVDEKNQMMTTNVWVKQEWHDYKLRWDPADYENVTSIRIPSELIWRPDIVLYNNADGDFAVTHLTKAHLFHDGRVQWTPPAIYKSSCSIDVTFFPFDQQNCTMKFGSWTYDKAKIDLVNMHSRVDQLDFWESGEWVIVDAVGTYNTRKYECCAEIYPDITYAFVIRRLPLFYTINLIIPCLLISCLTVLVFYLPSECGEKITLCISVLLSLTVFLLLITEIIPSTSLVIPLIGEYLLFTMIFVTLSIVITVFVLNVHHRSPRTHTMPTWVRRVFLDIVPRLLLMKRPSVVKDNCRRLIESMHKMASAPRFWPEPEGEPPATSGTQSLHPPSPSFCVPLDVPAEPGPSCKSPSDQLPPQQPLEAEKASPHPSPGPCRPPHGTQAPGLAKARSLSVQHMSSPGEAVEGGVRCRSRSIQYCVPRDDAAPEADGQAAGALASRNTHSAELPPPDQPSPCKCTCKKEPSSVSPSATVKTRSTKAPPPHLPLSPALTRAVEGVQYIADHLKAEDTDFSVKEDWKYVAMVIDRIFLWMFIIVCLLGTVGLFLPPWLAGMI

CCC1(CC)C(=O)NCC(C)C1=O (configuration not stated) [METHYPRYLON]
AC50 [1]: > 30 µM
AC50 [2]: > 30 µM
AC50 [3]: > 30 µM
AC50 [4]: > 30 µM
AC50 [5]: > 30 µM
AC50 [6]: > 30 µM
AC50 [7]: > 30 µM
AC50 (Histamine H1 receptor): > 30 µM
AC50 [8]: > 30 µM
AC50 [9]: > 30 µM
AC50 (Mu-type opioid receptor): > 30 µM
AC50 (Vasopressin V1a receptor): > 30 µM
AC50 [10]: > 30 µM
AC50 (Adenosine receptor A2a): > 30 µM
AC50 (Motilin receptor): > 30 µM
AC50 [11]: > 30 µM
AC50 [12]: > 30 µM

CC(CC(c1ccccc1)c1ccccc1)NC(C)(C)C (configuration not stated) [TERODILINE]
AC50 [1]: > 30 µM
AC50 [2]: > 30 µM
AC50 [3]: > 30 µM
AC50 [4]: > 30 µM
AC50 [5]: > 30 µM
AC50 [6]: > 30 µM
AC50 [7]: > 30 µM
AC50 (Histamine H1 receptor): 0.76 µM
AC50 [8]: > 30 µM
AC50 [9]: > 30 µM
AC50 (Mu-type opioid receptor): > 30 µM
AC50 (Vasopressin V1a receptor): > 30 µM
AC50 [10]: > 30 µM
AC50 (Adenosine receptor A2a): > 30 µM
AC50 (Motilin receptor): > 30 µM
AC50 [11]: > 30 µM
AC50 [12]: > 30 µM

CC(C(=O)O)c1ccc(N2Cc3ccccc3C2=O)cc1 (configuration not stated) [INDOPROFEN]
AC50 [1]: > 30 µM
AC50 [2]: > 30 µM
AC50 [3]: 0.0694 µM
AC50 [4]: > 30 µM
AC50 [5]: > 30 µM
AC50 [6]: > 30 µM
AC50 [7]: > 30 µM
AC50 (Histamine H1 receptor): > 30 µM
AC50 [8]: > 30 µM
AC50 [9]: > 30 µM
AC50 (Mu-type opioid receptor): > 30 µM
AC50 (Vasopressin V1a receptor): > 30 µM
AC50 [10]: > 30 µM
AC50 (Adenosine receptor A2a): > 30 µM
AC50 (Motilin receptor): > 30 µM
AC50 [11]: > 30 µM
AC50 [12]: > 30 µM

O=C(O)CCCCCCCC(=O)O [AZELAIC ACID]
AC50 [1]: > 10 µM
AC50 [2]: > 10 µM
AC50 [3]: > 10 µM
AC50 [4]: > 10 µM
AC50 [5]: > 10 µM
AC50 [6]: > 30 µM
AC50 [7]: > 10 µM
AC50 (Histamine H1 receptor): > 10 µM
AC50 [8]: > 10 µM
AC50 [9]: > 30 µM
AC50 (Mu-type opioid receptor): > 30 µM
AC50 (Vasopressin V1a receptor): > 10 µM
AC50 [10]: > 10 µM
AC50 (Adenosine receptor A2a): > 10 µM
AC50 (Motilin receptor): > 10 µM
AC50 [11]: > 30 µM
AC50 [12]: > 10 µM

C[C@H](N)[C@H](O)c1cccc(O)c1 [METARAMINOL]
AC50 [1]: > 10 µM
AC50 [2]: 14.3 µM
AC50 [3]: > 10 µM
AC50 [4]: > 10 µM
AC50 [5]: > 10 µM
AC50 [6]: > 30 µM
AC50 [7]: > 10 µM
AC50 (Histamine H1 receptor): > 10 µM
AC50 [8]: 35 µM
AC50 [9]: > 30 µM
AC50 (Mu-type opioid receptor): > 30 µM
AC50 (Vasopressin V1a receptor): > 10 µM
AC50 [10]: > 10 µM
AC50 (Adenosine receptor A2a): > 10 µM
AC50 (Motilin receptor): > 10 µM
AC50 [11]: > 30 µM
AC50 [12]: > 10 µM

Cc1ccc(-n2nccn2)c(C(=O)N2CCN(c3nc4cc(Cl)ccc4o3)CC[C@H]2C)c1 [SUVOREXANT]
AC50 [1]: > 30 µM
AC50 [2]: > 30 µM
AC50 [3]: > 30 µM
AC50 [4]: > 30 µM
AC50 [5]: > 30 µM
AC50 [6]: > 30 µM
AC50 [7]: > 30 µM
AC50 (Histamine H1 receptor): > 30 µM
AC50 [8]: > 30 µM
AC50 [9]: > 30 µM
AC50 (Mu-type opioid receptor): > 30 µM
AC50 (Vasopressin V1a receptor): > 30 µM
AC50 [10]: > 30 µM
AC50 (Adenosine receptor A2a): > 30 µM
AC50 (Motilin receptor): > 30 µM
AC50 [11]: > 30 µM
AC50 [12]: > 30 µM
